Values quoted from earlier work in article PMC10620911 (ACS Omega, 2023).

Conditions: structure-dependent

Compound: Cc1noc(-c2ccc(-c3ccc(C4(C(=O)O)CC4)cc3)cc2)c1NC(=O)O[C@H](C)c1ccccc1 [BMS-986020]
- hepatobiliary toxicity: hepatobiliary toxicity
